Data taken from patent US20050197350A1, “Novel quinoline, tetrahydroquinazoline, and pyrimidine derivatives and methods of treatment related to the use thereof” (TAISHO PHARMACEUTICAL CO., LTD., priority 2003, published 2005).

These compounds were tested on MCH receptors (assay: MCH receptor activity class (method not given)). Settings: class by percent of control at 10^-7 M or IC50.
`C=CCSc1ncccc1C(=O)N[C@H]1CC[C@@H](Nc2nccc(N(C)C)n2)CC1` [compound 923] was tested, and the class was 3 (Class 3 The value of percent of control at 10^−7 M was more than 60% or the value of IC50 was more than 200 nM.).
With `CN(C)c1ccnc(N[C@H]2CC[C@@H](NC(=O)c3cc(C(C)(C)C)c(O)c(C(C)(C)C)c3)CC2)n1` [compound 924] the class was 1 (Class 1: The value of percent of control at 10^−7 M was less than 40% or the value of IC50 was less than 50 nM.).
For `CN(C)c1ccnc(N[C@H]2CC[C@@H](CNC(=O)c3ccc(Br)s3)CC2)n1` [compound 925], the class was 3 (Class 3 The value of percent of control at 10^−7 M was more than 60% or the value of IC50 was more than 200 nM.).
With `CN(C)c1ccnc(N[C@H]2CC[C@@H](CNC(=O)Cc3c(Cl)ccc(Cl)c3Cl)CC2)n1` [compound 926, N-[(cis-4-{[4-(dimethylamino)pyrimidin-2-yl]amino}cyclohexyl)methyl]-2-(2,3,6-trichlorophenyl)acetamide] the class was 1 (Class 1: The value of percent of control at 10^−7 M was less than 40% or the value of IC50 was less than 50 nM.).
With `CN(C)c1ccnc(N[C@H]2CC[C@@H](CNC(=O)Cc3ccc(F)cc3Cl)CC2)n1` [compound 927] the class was 3 (Class 3 The value of percent of control at 10^−7 M was more than 60% or the value of IC50 was more than 200 nM.).
With `CN(C)c1ccnc(N[C@H]2CC[C@@H](CNC(=O)c3ccc(-c4ccc(Cl)cc4[N+](=O)[O-])o3)CC2)n1` [compound 928] the class was 3 (Class 3 The value of percent of control at 10^−7 M was more than 60% or the value of IC50 was more than 200 nM.).
With `CN(C)c1ccnc(N[C@H]2CC[C@@H](CNC(=O)c3ccc(Cl)s3)CC2)n1` [compound 929] the class was 3 (Class 3 The value of percent of control at 10^−7 M was more than 60% or the value of IC50 was more than 200 nM.).
For `CN(C)c1ccnc(N[C@H]2CC[C@@H](CNC(=O)CCc3ccccc3O)CC2)n1` [compound 931], the class was 3 (Class 3 The value of percent of control at 10^−7 M was more than 60% or the value of IC50 was more than 200 nM.).
For `CN(C)c1ccnc(N[C@H]2CC[C@@H](CNC(=O)c3ccc(I)o3)CC2)n1` [compound 932, N-[(cis-4-{[4-(dimethylamino)pyrimidin-2-yl]amino}cyclohexyl)methyl]-5-iodo-2-furamide], the class was 2 (Class 2: The value of percent of control at 10^−7 M was from 40% to 60% or the value of IC′50 was from 50 nM to 200 nM.).
With `COc1ccc2[nH]c(C)c(CC(=O)NC[C@H]3CC[C@@H](Nc4nccc(N(C)C)n4)CC3)c2c1` [compound 933] the class was 3 (Class 3 The value of percent of control at 10^−7 M was more than 60% or the value of IC50 was more than 200 nM.).
`CN(C)c1ccnc(N[C@H]2CC[C@@H](CNC(=O)/C=C/c3cccc([N+](=O)[O-])c3)CC2)n1` [compound 934] was tested, and the class was 1 (Class 1: The value of percent of control at 10^−7 M was less than 40% or the value of IC50 was less than 50 nM.).
`CN(C)c1ccnc(N[C@H]2CC[C@@H](CNC(=O)c3ccccc3Cc3ccccc3)CC2)n1` [compound 936] was tested, and the class was 2 (Class 2: The value of percent of control at 10^−7 M was from 40% to 60% or the value of IC′50 was from 50 nM to 200 nM.).
`CN(C)c1ccnc(N[C@H]2CC[C@@H](CNC(=O)C(c3ccc(Cl)cc3)c3ccc(Cl)cc3)CC2)n1` [compound 937, 2,2-bis(4-chlorophenyl)-N-[(cis-4-{[4-(dimethylamino)pyrimidin-2-yl]amino}cyclohexyl)methyl]acetamide] was tested, and the class was 1 (Class 1: The value of percent of control at 10^−7 M was less than 40% or the value of IC50 was less than 50 nM.).
With `Cc1ccc(-c2ccc(C(=O)NC[C@H]3CC[C@@H](Nc4nccc(N(C)C)n4)CC3)o2)c([N+](=O)[O-])c1` [compound 938] the class was 3 (Class 3 The value of percent of control at 10^−7 M was more than 60% or the value of IC50 was more than 200 nM.).
For `CN(C)c1ccnc(N[C@H]2CC[C@@H](CNC(=O)c3ccc([N+](=O)[O-])s3)CC2)n1` [compound 939], the class was 3 (Class 3 The value of percent of control at 10^−7 M was more than 60% or the value of IC50 was more than 200 nM.).
`Cc1cc(C(=O)NC[C@H]2CC[C@@H](Nc3nccc(N(C)C)n3)CC2)ccc1[N+](=O)[O-]` [compound 940, N-[(cis-4-{[4-(dimethylamino)pyrimidin-2-yl]amino}cyclohexyl)methyl]-3-methyl-4-nitrobenzamide] was tested, and the class was 1 (Class 1: The value of percent of control at 10^−7 M was less than 40% or the value of IC50 was less than 50 nM.).
In the case of `COc1cc(C(=O)NC[C@H]2CC[C@@H](Nc3nccc(N(C)C)n3)CC2)ccc1[N+](=O)[O-]` [compound 941, N-[(cis-4-{[4-(dimethylamino)pyrimidin-2-yl]amino}cyclohexyl)methyl]-3-methoxy-4-nitrobenzamide], the class is reported as 1 (Class 1: The value of percent of control at 10^−7 M was less than 40% or the value of IC50 was less than 50 nM.).
`CN(C)c1ccnc(N[C@H]2CC[C@@H](CNC(=O)c3cn(Cc4ccccc4)c4ccccc34)CC2)n1` [compound 942] was tested, and the class was 3 (Class 3 The value of percent of control at 10^−7 M was more than 60% or the value of IC50 was more than 200 nM.).
`CN(C)c1ccnc(N[C@H]2CC[C@@H](CNC(=O)CC3=CCCCC3)CC2)n1` [compound 943] was tested, and the class was 3 (Class 3 The value of percent of control at 10^−7 M was more than 60% or the value of IC50 was more than 200 nM.).
For `CN(C)c1ccnc(N[C@H]2CC[C@@H](CNC(=O)Cc3ccccc3OC(F)(F)F)CC2)n1` [compound 945], the class was 1 (Class 1: The value of percent of control at 10^−7 M was less than 40% or the value of IC50 was less than 50 nM.).
For `Cc1cc(C(=O)NC[C@H]2CC[C@@H](Nc3nccc(N(C)C)n3)CC2)cc(C)c1OCc1ccccc1` [compound 946], the class was 3 (Class 3 The value of percent of control at 10^−7 M was more than 60% or the value of IC50 was more than 200 nM.).
For `CN(C)c1ccnc(N[C@H]2CC[C@@H](CNC(=O)C3c4ccccc4Oc4ccccc43)CC2)n1` [compound 947, N-[(cis-4-{[4-(dimethylamino)pyrimidin-2-yl]amino}cyclohexyl)methyl]-9H-xanthene-9-carboxamide], the class was 1 (Class 1: The value of percent of control at 10^−7 M was less than 40% or the value of IC50 was less than 50 nM.).
For `CN(C)c1ccnc(N[C@H]2CC[C@@H](CNC(=O)Cc3csc4ccccc34)CC2)n1` [compound 948], the class was 1 (Class 1: The value of percent of control at 10^−7 M was less than 40% or the value of IC50 was less than 50 nM.).
For `CN(C)c1nc(N[C@H]2CC[C@@H](NC(=O)c3ccc(Br)s3)CC2)nc2c1CCCC2` [compound 949], the class was 2 (Class 2: The value of percent of control at 10^−7 M was from 40% to 60% or the value of IC′50 was from 50 nM to 200 nM.).
With `CN(C)c1nc(N[C@H]2CC[C@@H](NC(=O)Cc3c(Cl)ccc(Cl)c3Cl)CC2)nc2c1CCCC2` [compound 950] the class was 2 (Class 2: The value of percent of control at 10^−7 M was from 40% to 60% or the value of IC′50 was from 50 nM to 200 nM.).
`CN(C)c1nc(N[C@H]2CC[C@@H](NC(=O)Cc3ccc(F)cc3Cl)CC2)nc2c1CCCC2` [compound 951, 2-(2-chloro-4-fluorophenyl)-N-(cis-4-{[4-(dimethylamino)-5,6,7,8-tetrahydroquinazolin-2-yl]amino}cyclohexyl)acetamide] was tested, and the class was 1 (Class 1: The value of percent of control at 10^−7 M was less than 40% or the value of IC50 was less than 50 nM.).
In the case of `CN(C)c1nc(N[C@H]2CC[C@@H](NC(=O)c3ccc(-c4ccc(Cl)cc4[N+](=O)[O-])o3)CC2)nc2c1CCCC2` [compound 952, 5-(4-chloro-2-nitrophenyl)-N-(cis-4-{[4-(dimethylamino)-5,6,7,8-tetrahydroquinazolin-2-yl]amino}cyclohexyl)-2-furamide], the class is reported as 1 (Class 1: The value of percent of control at 10^−7 M was less than 40% or the value of IC50 was less than 50 nM.).
`CN(C)c1nc(N[C@H]2CC[C@@H](NC(=O)c3ccc(Cl)s3)CC2)nc2c1CCCC2` [compound 953] was tested, and the class was 1 (Class 1: The value of percent of control at 10^−7 M was less than 40% or the value of IC50 was less than 50 nM.).
For `CN(C)c1nc(N[C@H]2CC[C@@H](NC(=O)CCc3ccccc3O)CC2)nc2c1CCCC2` [compound 955], the class was 2 (Class 2: The value of percent of control at 10^−7 M was from 40% to 60% or the value of IC′50 was from 50 nM to 200 nM.).
`CN(C)c1nc(N[C@H]2CC[C@@H](NC(=O)c3ccc(I)o3)CC2)nc2c1CCCC2` [compound 956] was tested, and the class was 1 (Class 1: The value of percent of control at 10^−7 M was less than 40% or the value of IC50 was less than 50 nM.).
In the case of `CN(C)c1nc(N[C@H]2CC[C@@H](NC(=O)Cc3ccccc3I)CC2)nc2c1CCCC2` [compound 957], the class is reported as 2 (Class 2: The value of percent of control at 10^−7 M was from 40% to 60% or the value of IC′50 was from 50 nM to 200 nM.).
`COc1ccc2[nH]c(C)c(CC(=O)N[C@H]3CC[C@@H](Nc4nc5c(c(N(C)C)n4)CCCC5)CC3)c2c1` [compound 958] was tested, and the class was 2 (Class 2: The value of percent of control at 10^−7 M was from 40% to 60% or the value of IC′50 was from 50 nM to 200 nM.).
With `CN(C)c1nc(N[C@H]2CC[C@@H](NC(=O)/C=C/c3cccc([N+](=O)[O-])c3)CC2)nc2c1CCCC2` [compound 959] the class was 3 (Class 3 The value of percent of control at 10^−7 M was more than 60% or the value of IC50 was more than 200 nM.).
With `CN(C)c1nc(N[C@H]2CC[C@@H](NC(=O)c3ccccc3Cc3ccccc3)CC2)nc2c1CCCC2` [compound 961] the class was 2 (Class 2: The value of percent of control at 10^−7 M was from 40% to 60% or the value of IC′50 was from 50 nM to 200 nM.).
`CN(C)c1nc(N[C@H]2CC[C@@H](NC(=O)C(c3ccc(Cl)cc3)c3ccc(Cl)cc3)CC2)nc2c1CCCC2` [compound 962] was tested, and the class was 1 (Class 1: The value of percent of control at 10^−7 M was less than 40% or the value of IC50 was less than 50 nM.).
In the case of `Cc1ccc(-c2ccc(C(=O)N[C@H]3CC[C@@H](Nc4nc5c(c(N(C)C)n4)CCCC5)CC3)o2)c([N+](=O)[O-])c1` [compound 963], the class is reported as 2 (Class 2: The value of percent of control at 10^−7 M was from 40% to 60% or the value of IC′50 was from 50 nM to 200 nM.).
`CN(C)c1nc(N[C@H]2CC[C@@H](NC(=O)c3ccc([N+](=O)[O-])s3)CC2)nc2c1CCCC2` [compound 964] was tested, and the class was 1 (Class 1: The value of percent of control at 10^−7 M was less than 40% or the value of IC50 was less than 50 nM.).
